Key:
rabbit platelets [1] = test: PAF-induced platelet secretion ([3H]serotonin); format: cell-based; conditions: Oryctolagus cuniculus, washed [3H]serotonin-labeled rabbit platelets, antagonist 60 sec before PAF, sampled 60 sec after PAF
Description: (§1) Washed, [^3 H]serotonin-labeled rabbit platelets were prepared as previously described in COX, C. P., J. LINDEN and S. I. SAID: VIP elevates platelet cyclic AMP (cAMP) levels and inhibits in vitro platelet activation induced by platelet- activating factor (PAF). Peptides 5:25-28, 1984, and maintained in an atmosphere of 5% CO2 at 37° C. until used in the bioassay. Aliquots of platelets (2.5×10^8 /ml) were incubated with either an antagonist of PAF or the appropriate vehicle for 60 sec prior to the addition of PAF (0.2 nM to 0.2 mM). Aggregation was continuously monitored on a strip-chart recorder and recorded as the height of the tracing at 60 sec after the addition of PAF. Secretion of [^3 H]serotonin was measured in a sample of the platelet suspension removed at 60 sec after the addition of PAF. The percent inhibition of aggregation and secretion was calculated by comparing antagonist-treated platelets with the appropriate vehicle-treated control platelets. Each combination of antagonist and PAF was repeated 12-15 times, using several different platelet preparations. IC50 values were determined by inspection of the dose-response curves.

rabbit platelets [2] = test: PAF-induced platelet aggregation; format: cell-based; conditions: Oryctolagus cuniculus, washed rabbit platelets, antagonist 60 sec before PAF, tracing height 60 sec after PAF
Description: as §1

[3] = molecular target: Human Platelet Membrane Receptors (PAF receptor) (Homo sapiens, UniProt P25105); conditions: for inhibition at 50 µM: read-out: Percent Inhibition of 3H-PAF binding at 50 μM
Chain of Human Platelet Membrane Receptors (PAF receptor) (P25105 whole entry): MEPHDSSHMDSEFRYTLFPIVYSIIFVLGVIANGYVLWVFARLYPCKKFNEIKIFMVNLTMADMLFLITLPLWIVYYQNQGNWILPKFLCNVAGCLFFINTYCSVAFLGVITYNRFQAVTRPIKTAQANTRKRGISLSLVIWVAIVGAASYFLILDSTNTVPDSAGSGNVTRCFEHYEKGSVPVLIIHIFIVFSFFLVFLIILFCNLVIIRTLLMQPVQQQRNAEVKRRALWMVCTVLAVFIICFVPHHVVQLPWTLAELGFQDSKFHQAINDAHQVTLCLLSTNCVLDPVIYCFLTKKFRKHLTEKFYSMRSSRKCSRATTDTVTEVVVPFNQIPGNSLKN
Description: INHIBITION OF ^3 H-PAF BINDING TO HUMAN PLATELET MEMBRANE RECEPTORS
Ten units of in-dated human packed platelets, each containing 45-65 ml platelet rich-plasma, were purchased from a commercial blood bank. Disposable plasticware was used throughout for receptor preparation. The units were pooled and a 1 ml aliquot was removed for determination of platelet concentration, using a Coulter Counter. The remaining platelet rich plasma was dispensed into 50 ml conical tubes and centrifuged at room temperature for 15 minutes at 3000 RPM (2300×g). Plasma was decanted and the platelets were resuspended in 35 ml of buffer (10 mM Trizma 7.0, 2 mM EDTA (dipotassium salt), and 150 mM KCl) and transferred to fresh tubes, which were centrifuged again as above. The platelets were washed 3 times, avoiding contaminating erythrocytes at the bottom of the pellets. Pellets were consolidated at each step, and by the last wash with EDTA/KCl buffer, most of the erythrocytes were in 1 tube. The pellets were resuspended in buffer containing 10 mM Trizma 7.0 with 10 mM CaCl2. Following centrifugation, the buffer was decanted and the pellets were resuspended in the CaCl2 buffer, avoiding erythrocyte contamination by recovering less than 100% of the platelet pellets. The resuspended platelets were dispensed in 8-10 ml aliquots into Corex tubes and disrupted by three cycles of freezing (dry ice/ethanol) and thawing (24° C.). The tubes were centrifuged at 40,000 × g for 20 minutes at 4° C. Supernatants were decanted and each pellet was resuspended in 5-7 ml 10 mM Trizma 7.0. All resuspended pellets were pooled and aliquots of about 1200 ml were dispensed into 1.5 ml microfuge tubes and frozen at -70° C. Protein content was determined by a fluorescamine protein assay.
Assay Methods: Receptor Characterization--Each receptor preparation was evaluated to determine the number of receptor populations, the number of PAF receptor equivalents/mg protein and the dissociation constant (KD) for PAF binding This required 2-3 experiments in which the protein concentration was held constant and the ^3 H-PAF ligand concentration was varied from approximately 0.10-2.5 nM and the data was analyzed by Scatchard methodology. Total incubation volume was 250 ml for these procedures and incubations were conducted at 24° C. for 30 minutes. For further experimentation, total incubation volumes are 500 ml. Protein and ligand concentrations were adjusted to give 0.075 nM receptor equivalents in the presence of 0.75 nM ^3 H-PAF. Each receptor preparation was then used to determine the dose - response displacement relationship of unlabeled PAF and the PAF antagonist, triazolam.
Assay Methods: Routine Assay of Compounds--The compounds were weighed precisely and solubilized in quantities of DMSO such that a 5 ml aliquot in the incubate would deliver the desired compound concentration. Compounds tested for the first time in this assay were evaluated at a concentration of 50 mM in the incubation medium. […] Triazolam was always included in each screening assay as a compound inhibition control. […] Nonspecific binding control solution was made by drying to completion about 26.2 ml unlabeled PAF under a stream of argon. PAF was resolubilized in 1000 ml DMSO. When delivered in a 5 ml aliquot, the final concentration of 1 mM PAF in the incubate exceeded by 1000-fold the concentration of ^3 H-PAF.
All buffers containing proteins were made at room temperature on the day of assay. Assay buffer was prepared by adding 125 mg human albumin to 25 ml of stock buffer (10 mM Trizma 7.4 with 20 mM CaCl2). Rinse buffer was made by adding 20 grams bovine serum albumin to 1000 ml stock buffer. About 80 ml of rinse buffer was decanted into a small pyrex dish and used to soak 65 Whatman GF/C 2.5 cm glass filters. The remaining rinse buffer was poured into a repipet and placed into an ice bath along with the filters.

Compound: COc1cc(Oc2ccc(C(=O)N(C(C)C)C3CCCCC3)cc2)cc(OC)c1OC [Example 1, N-cyclohexyl-N-(1-methylethyl)-4-(3,4,5-trimethoxyphenoxy)benzamide]
- IC50 (rabbit platelets [1]): 8.9 nM
- IC50 (rabbit platelets [2]; 1 min): 10 to 100 nM
- IC50 [3]: 133 nM

Compound: COc1ccc(Oc2ccc(C(=O)N(C(C)C)C3CCCCC3)cc2)cc1 [Example 2, N-cyclohexyl-4-(4-methoxyphenoxy)-N-(1-methylethyl)benzamide]
- IC50 (rabbit platelets [1]): 1120 nM
- IC50 (rabbit platelets [2]; 1 min): 1000 to 10000 nM
- IC50 [3]: 22100 nM

Compound: COc1cccc(Oc2ccc(C(=O)N(C(C)C)C3CCCCC3)cc2)c1 [Example 3, N-cyclohexyl-4-(3-methoxyphenoxy)-N-(1-methylethyl)benzamide]
- IC50 (rabbit platelets [1]): 750 nM
- IC50 (rabbit platelets [2]; 1 min): 1000 to 10000 nM
- IC50 [3]: 10500 nM

Compound: COc1cc(Oc2ccc(C(=O)N(C3CCCCC3)C3CCCC3)cc2)cc(OC)c1OC [Example 4, N-cyclohexyl-N-cyclopentyl-4-(3,4,5-trimethoxyphenoxy)benzamide]
- IC50 (rabbit platelets [1]): 9.36 nM
- IC50 (rabbit platelets [2]; 1 min): 1000 to 10000 nM
- IC50 [3]: 508 nM

Compound: COc1ccc(Oc2ccc(C(=O)N(C3CCCCC3)C3CCCC3)cc2)cc1OC [Example 5, N-cyclohexyl-N-cyclopentyl-4-(3,4-dimethoxyphenoxy)benzamide]
- IC50 (rabbit platelets [1]): 4010 nM
- IC50 (rabbit platelets [2]; 1 min): 1000 to 10000 nM
- IC50 [3]: 1500 nM

Compound: COc1ccc(Oc2ccc(C(=O)N(C(C)C)C3CCCCC3)cc2)cc1OC [Example 6, N-cyclohexyl-4-(3,4-dimethoxyphenoxy)-N-(1-methylethyl)benzamide]
- IC50 (rabbit platelets [1]): 85.9 nM
- IC50 (rabbit platelets [2]; 1 min): 100 to 1000 nM
- IC50 [3]: 2010 nM

Compound: COc1ccc(Oc2ccc(C(=O)N(C3CCCC3)C3CCCC3)cc2)cc1OC [Example 7, N,N-dicyclopentyl-4-(3,4-dimethoxyphenoxy)benzamide]
- IC50 (rabbit platelets [1]): 422 nM
- IC50 (rabbit platelets [2]; 1 min): 1000 to 10000 nM
- IC50 [3]: 914 nM

Compound: COc1ccc(C(O)c2ccc(C(=O)N(C(C)C)C3CCCCC3)cc2)cc1OC (stereo not drawn) [Example 8, N-cyclohexyl-4-[(3,4-dimethoxyphenyl)hydroxymethyl]-N-(1-methylethyl)benzamide]
- IC50 (rabbit platelets [1]): 2570 nM
- IC50 (rabbit platelets [2]; 1 min): 10000 to 100000 nM
- inhibition at 50 µM [3]: 44%

Compound: COc1ccc(C(O)c2ccc(C(=O)N(C3CCCCC3)C3CCCC3)cc2)cc1OC (stereo not drawn) [Example 9, N-cyclohexyl-N-cyclopentyl-4-[(3,4-dimethoxyphenyl)hydroxymethyl]benzamide]
- IC50 (rabbit platelets [1]): 1490 nM
- IC50 (rabbit platelets [2]; 1 min): 1000 to 10000 nM
- inhibition at 50 µM [3]: 61.9%

Compound: COc1ccc(C(O)c2ccc(C(=O)N(C3CCCC3)C3CCCC3)cc2)cc1OC (stereo not drawn) [Example 10, N,N-dicyclopentyl-4-[(3,4-dimethoxyphenyl) hydroxymethyl]benzamide]
- IC50 (rabbit platelets [1]; 1 min): 1000 to 10000 nM
- IC50 (rabbit platelets [2]): > 10000 nM
- inhibition at 50 µM [3]: 47%

Compound: COc1ccc(Cc2ccc(C(=O)N(C3CCCC3)C3CCCC3)cc2)cc1OC [Example 11, N,N-dicyclopentyl-4-[(3,4-dimethoxyphenyl)methyl]benzamide]
- IC50 (rabbit platelets [1]): 114 nM
- IC50 (rabbit platelets [2]; 1 min): 1000 to 10000 nM
- IC50 [3]: 1480 nM

Compound: COc1cc(OC)cc(Oc2ccc(C(=O)N(C(C)C)C3CCCCC3)cc2)c1 [Example 12, N-cyclohexyl-4-(3,5-dimethoxyphenoxy)-N-(1-methylethyl)benzamide]
- IC50 (rabbit platelets [1]): 142 nM
- IC50 (rabbit platelets [2]; 1 min): 1000 to 10000 nM
- IC50 [3]: 2710 nM

Compound: COc1cc(Oc2ccc(C(=O)N(C3CCCCC3)C3CCCC3)cc2C)cc(OC)c1OC [Example 13, N-cyclohexyl-N-cyclopentyl-3-methyl-4-(3,4,5-trimethoxyphenoxy)benzamide]
- IC50 (rabbit platelets [1]): 89.4 nM
- IC50 (rabbit platelets [2]): < 1000 nM
- IC50 [3]: 600 nM

Compound: COc1cc(C(O)c2ccc(C(=O)N(C(C)C)C3CCCCC3)cc2)cc(OC)c1OC (stereo not drawn) [Example 14, N-cyclohexyl-4-[hydroxy(3,4,5-trimethoxyphenyl)methyl]-N-(1-methylethyl)benzamide]
- IC50 (rabbit platelets [1]): 1810 nM
- IC50 (rabbit platelets [2]; 1 min): 100 to 1000 nM
- inhibition at 50 µM [3]: 49.2%

Compound: COc1cc(Cc2ccc(C(=O)N(C(C)C)C3CCCCC3)cc2)cc(OC)c1OC [Example 15, N-cyclohexyl-N-(1-methylethyl)-4-[(3,4,5-trimethoxyphenyl)methyl]benzamide]
- IC50 (rabbit platelets [1]): 26.6 nM
- IC50 (rabbit platelets [2]; 1 min): 100 to 1000 nM
- IC50 [3]: 425 nM

Compound: COc1cc(C(=O)c2ccc(C(=O)N(C(C)C)C3CCCCC3)cc2)cc(OC)c1OC [Example 16, N-cyclohexyl-N-(1-methylethyl)-4-(3,4,5-trimethoxybenzoyl)benzamide]
- IC50 (rabbit platelets [1]): 103 nM
- IC50 (rabbit platelets [2]; 1 min): 100 to 1000 nM

Compound: COc1cc(OC)c(OC)cc1Cc1ccc(C(=O)N(C2CCCCC2)C2CCCC2)cc1 [Example 17, N-cyclohexyl-N-cyclopentyl-4-[(2,4,5-trimethoxyphenyl)methyl]benzamide]
- IC50 (rabbit platelets [1]): 632 nM
- IC50 (rabbit platelets [2]; 1 min): 1000 to 10000 nM
- IC50 [3]: 3710 nM

Compound: CC(C)N(C(=O)c1ccc(Oc2ccc3c(c2)OCO3)cc1)C1CCCCC1 [Example 18, N-cyclohexyl-4-(3,4-methylenedioxyphenoxy)-N-(1-methylethyl)benzamide]
- IC50 (rabbit platelets [1]): 1990 nM
- IC50 (rabbit platelets [2]; 1 min): 1000 to 10000 nM
- IC50 [3]: 8160 nM

Compound: COc1cc(C(=O)N(C(C)C)C2CCCCC2)ccc1Oc1cc(OC)c(OC)c(OC)c1 [Example 19, N-cyclohexyl-3-methoxy-N-(1-methylethyl)-4-(3,4,5-trimethoxyphenoxy)benzamide]
- IC50 [3]: 995 nM

Compound: COc1ccc(OCc2ccc(C(=O)N(C(C)C)C3CCCCC3)cc2OC)c(OC)c1 [Example 20, N-cyclohexyl-4-[(2,4-dimethoxyphenoxy)methyl]-3-methoxy-N-(1-methylethyl)benzamide]
- inhibition at 50 µM [3]: 41%

Compound: COc1cccc(OCc2ccc(C(=O)N(C(C)C)C3CCCCC3)cc2OC)c1 [Example 21, N-cyclohexyl-3-methoxy-4-[(3-methoxyphenoxy)methyl]-N-(1-methylethyl)benzamide]
- IC50 [3]: 11200 nM

Compound: COc1cccc(OCc2ccc(C(=O)N(C)C3CCCCC3)cc2)c1 [Example 22, N-cyclohexyl-4-[(3-methoxyphenoxy)methyl]-N-methylbenzamide]
- IC50 (rabbit platelets [1]): > 10000 nM
- IC50 (rabbit platelets [2]; 1 min): 10000 to 100000 nM
- IC50 [3]: 53200 nM

Compound: COc1cc(OCc2ccc(C(=O)N(C)C3CCCCC3)cc2)cc(OC)c1OC [Example 23, N-cyclohexyl-N-methyl-4-[(3,4,5-trimethoxyphenoxy)methyl]benzamide]
- IC50 (rabbit platelets [1]; 1 min): 10000 to 100000 nM
- IC50 (rabbit platelets [2]; 1 min): 10000 to 100000 nM
- IC50 [3]: > 50000 nM

Compound: Cc1nnc2n1-c1ccc(Cl)cc1C(c1ccccc1Cl)=NC2 [Triazolam, triazolam, reference compound]
- inhibition of 3H-PAF binding by triazolam control at standard concentration ([3]; standard concentration of 50 mM (so in the source), 0.75 nM 3H-PAF): approximately 50%
